According to patent US20240189255A1, “METHODS OF TREATMENT OF OSTEOARTHRITIS WITH TRANSDERMAL CANNABIDIOL GEL” (ZYNERBA PHARMACEUTICALS, INC., priority 2017, published 2024):

What was measured:
[1] = Pharmacokinetic data: plasma concentrations in the 12-week osteoarthritis trial; format: in vivo, human
Protocol: (§1) Three hundred and twenty (320) patients aged 41 to 78 years of age with confirmed osteoarthritis of the knee were randomized in the double-blind, multi-center trial. Patients who completed the one-week washout and the seven-to-10-day baseline phase were randomized 1:1:1 to receive either 250 mg of CBD daily, 500 mg of CBD daily, or placebo, for 12 weeks. […] The 250 mg and 500 mg doses were administered as a 4.2% (wt/wt) CBD gel.

[2] = test system: patients with confirmed osteoarthritis of the knee; assay: Double-blind, multi-center, placebo-controlled 12-week trial: worst knee pain score, WOMAC physical function, composite responders; format: in vivo, human; parameters: mean reduction from baseline in average worst knee pain scores / Worst Knee Pain Score: scale not given here
Protocol: as §1
Across all participants, patients on 250 mg of CBD daily dosage achieved a 2.64 mean reduction from baseline in average worst knee pain scores at week 12; patients on 500 mg of CBD daily achieved a 2.83 mean reduction from baseline in average worst knee pain scores at week 12; and patients on placebo achieved a 2.37 mean reduction from baseline in average worst knee pain scores at week 12. […] A mixed-model repeated measures (MMRM) model was used to test for differences between active treatment groups and placebo based on all weekly average worst knee pain scores from Baseline to Week 12.
Over an initial 7 day period, patients were instructed to end use of other osteoarthritic treatment such as NSAID or COX-2 inhibitor, but were permitted to use acetaminophen for rescue use. At this time, baseline mean worst knee pain was identified for each patient. During the study, rescue use of acetaminophen was permitted for both active and placebo study groups, and there was no difference among the groups in prevalence of rescue use.
Fisher's Exact Test was used to test for differences in composite responders between each active treatment and placebo at LOCF. In the composite responder analysis, a positive response on the composite response analysis indicated a ≥30 percent reduction in worst average daily pain scores and a >20 percent improvement in WOMAC (Western Ontario & McMaster Universities Osteoarthritis Index) physical function score.
The study data was also analyzed with regard to the active dose per weight of the patient (i.e., dosage/weight in mg CBD/kg weight of patient). For this analysis, the patient population was divided into three groups: 0-25 percentile, 25-75 percentile, and 75-100 percentile, by dose/weight. Table 9 is a summary of composite responder analysis at last observation Dose/Weight Quartile 0-25%. Table 10 is a summary of composite responder analysis at last observation dose/weight quartile 25-75%. Table 11 is a summary of composite responder analysis at last observation dose/weight quartile 75-100%.

[3] = 250 mg CBD, efficacy patients, last observation, 93 assessed
[4] = 250 mg CBD, efficacy patients, last observation, 106 assessed
[5] = 500 mg CBD, efficacy patients, last observation, 91 assessed
[6] = 500 mg CBD, efficacy patients, last observation, 105 assessed
[7] = Dose/Weight Quartile 0-25%, 250 mg, last observation, 46 assessed, p=0.010

C=C(C)[C@@H]1CCC(C)=C[C@H]1c1c(O)cc(CCCCC)cc1O [CBD, 2-[3-methyl-6-(1-methylethenyl)-2-cyclohexen-1-yl]-5-pentyl-1,3-benzenediol]
dose media plasma concentrations, dose relationship ([1]; 500 mg and 250 mg daily CBD doses): dose proportional
plasma concentration of the 500 mg dose relative to the 250 mg dose ([1]; 500 mg vs 250 mg daily): approximately two times
20 Percent Responders in Physical Function WOMAC Score: No, number of patients [2, 3]: 33
20 Percent Responders in Physical Function WOMAC Score: No, percent of patients [2, 3]: (35.5) %
20 Percent Responders in Physical Function WOMAC Score: Yes, number of patients [2, 3]: 60
20 Percent Responders in Physical Function WOMAC Score: Yes, percent of patients [2, 3]: (64.5) %
Composite Responder: No, number of patients [2, 3]: 44
Composite Responder: No, percent of patients [2, 3]: (47.3) %
Composite Responder: Yes, number of patients ([2]; 250 mg CBD, efficacy patients, last observation, 93 assessed, p=0.016 vs placebo): 49
30 Percent Reduction in Diary Pain: No, number of patients [2, 4]: 53
30 Percent Reduction in Diary Pain: No, percent of patients [2, 4]: (50.0) %
30 Percent Reduction in Diary Pain: Yes, number of patients [2, 4]: 53
30 Percent Reduction in Diary Pain: Yes, percent of patients [2, 4]: (50.0) %
responder rate based on ≥30% reduction in worst pain severity ([2]; 250 mg of CBD daily, week 8, p=0.037): Statistically significant
20 Percent Responders in Physical Function WOMAC Score: No, number of patients [2, 5]: 37
20 Percent Responders in Physical Function WOMAC Score: No, percent of patients [2, 5]: (40.7) %
20 Percent Responders in Physical Function WOMAC Score: Yes, number of patients [2, 5]: 54
20 Percent Responders in Physical Function WOMAC Score: Yes, percent of patients [2, 5]: (59.3) %
Composite Responder: No, number of patients [2, 5]: 50
Composite Responder: No, percent of patients [2, 5]: (54.9) %
Composite Responder: Yes, number of patients ([2]; 500 mg CBD, efficacy patients, last observation, 91 assessed, p=0.169 vs placebo): 41
30 Percent Reduction in Diary Pain: No, number of patients [2, 6]: 54
30 Percent Reduction in Diary Pain: No, percent of patients [2, 6]: (51.4) %
30 Percent Reduction in Diary Pain: Yes, number of patients [2, 6]: 51
30 Percent Reduction in Diary Pain: Yes, percent of patients [2, 6]: (48.6) %
20 Percent Responders in Physical Function WOMAC Score: Yes, percent of patients ([2]; Dose/Weight Quartile 0-25%, 250 mg, last observation, 46 assessed): 69.6%
Composite Responders: Yes, number of patients [2, 7]: 27
Composite Responders: Yes, percent of patients [2, 7]: 58.7%
mean reduction from baseline in average worst knee pain scores ([2]; all participants, 250 mg CBD daily, week 12, placebo 2.37, not statistically significant): 2.64
mean reduction from baseline in average worst knee pain scores ([2]; all participants, 500 mg CBD daily, week 12, placebo 2.37, not statistically significant): 2.83
mean reduction from baseline in average worst knee pain scores ([2]; baseline pain score ≥7, both CBD dosage groups combined, week 4, placebo 1.6, p=0.029): 2.17
mean reduction from baseline in average worst knee pain scores ([2]; baseline pain score ≥7, both CBD dosage groups combined, week 8, placebo 2.22, p=0.054): 3.02
mean reduction from baseline in average worst knee pain scores ([2]; baseline pain score ≥7, both CBD dosage groups combined, week 12, placebo 2.52, p=0.086): 3.29
Composite Responders: Yes, percent of patients ([2]; dose/weight quartile 25-75%, 250 mg, last observation, 47 assessed, p=0.194): 46.8%
Composite Responders: Yes, percent of patients ([2]; dose/weight quartile 25-75%, 500 mg, last observation, 45 assessed, p=0.133): 48.9%
Composite Responders: Yes, percent of patients ([2]; dose/weight quartile 75-100%, 500 mg, last observation, 46 assessed, p=0.453): 41.3%
Composite Responders ([2]; male patients, 250 mg, LOCF, placebo 27%, p=0.003): 60%
Worst Knee Pain Score, % reduction ([2]; male patients, 250 mg, wk 4): 24%
Worst Knee Pain Score ([2]; male patients, 250 mg, wk 4, baseline 6.77, p=0.156): 5.05
Worst Knee Pain Score, % reduction ([2]; male patients, 250 mg, wk 8): 34%
Worst Knee Pain Score ([2]; male patients, 250 mg, wk 8, baseline 6.77, p=0.066): 4.47
Worst Knee Pain Score, % reduction ([2]; male patients, 250 mg, wk 12): 39%
Worst Knee Pain Score ([2]; male patients, 250 mg, wk 12, n=47, baseline 6.77, p=0.049): 4.16
Composite Responders ([2]; male patients, 500 mg, LOCF, placebo 27%, p=0.174): 41%
Worst Knee Pain Score, % reduction ([2]; male patients, 500 mg, wk 4): 22%
Worst Knee Pain Score ([2]; male patients, 500 mg, wk 4, baseline 6.85, p=0.323): 5.33
Worst Knee Pain Score, % reduction ([2]; male patients, 500 mg, wk 8): 30%
Worst Knee Pain Score ([2]; male patients, 500 mg, wk 8, baseline 6.85, p=0.474): 4.73
Worst Knee Pain Score, % reduction ([2]; male patients, 500 mg, wk 12): 33%
Worst Knee Pain Score ([2]; male patients, 500 mg, wk 12, n=38, baseline 6.85, p=0.193): 4.44
mean reduction from baseline in average worst knee pain scores ([2]; men, 250 mg of CBD daily, week 4, placebo 1.19, p=0.156): 1.65
mean reduction from baseline in average worst knee pain scores ([2]; men, 250 mg of CBD daily, week 8, placebo 1.56, p=0.066): 2.30
mean reduction from baseline in average worst knee pain scores ([2]; men, 250 mg of CBD daily, week 12, placebo 1.70, p=0.049): 2.68
pain reduction over placebo ([2]; patients having a baseline knee pain score less than 7, FIG. 10): not statistically significant
Composite Responders ([2]; patients with ≥7 mean baseline pain score, CBD groups combined, placebo 33%, p=0.083): 51%
Worst Knee Pain Score, % reduction ([2]; patients with ≥7 mean baseline pain score, CBD groups combined, wk4): 28%
Worst Knee Pain Score ([2]; patients with ≥7 mean baseline pain score, CBD groups combined, wk4, baseline 7.7, p=0.029): 5.45
Worst Knee Pain Score, % reduction ([2]; patients with ≥7 mean baseline pain score, CBD groups combined, wk8): 40%
Worst Knee Pain Score ([2]; patients with ≥7 mean baseline pain score, CBD groups combined, wk8, baseline 7.7, p=0.054): 4.61
Worst Knee Pain Score, % reduction ([2]; patients with ≥7 mean baseline pain score, CBD groups combined, wk12): 43%
Worst Knee Pain Score ([2]; patients with ≥7 mean baseline pain score, CBD groups combined, wk12, n=75, baseline 7.7, p=0.086): 4.34
Worst Knee Pain Score, % reduction ([2]; total patients, 250 mg, wk 4): 24%
Worst Knee Pain Score ([2]; total patients, 250 mg, wk 4, baseline 6.8, p=0.432): 5.09
Worst Knee Pain Score, % reduction ([2]; total patients, 250 mg, wk 8): 34%
Worst Knee Pain Score ([2]; total patients, 250 mg, wk 8, baseline 6.8, p=0.193): 4.43
Worst Knee Pain Score, % reduction ([2]; total patients, 250 mg, wk 12): 38%
Worst Knee Pain Score ([2]; total patients, 250 mg, wk 12, n=76, baseline 6.8, p=0.517): 4.23
Worst Knee Pain Score, % reduction ([2]; total patients, 500 mg, wk 4): 27%
Worst Knee Pain Score ([2]; total patients, 500 mg, wk 4, baseline 6.87, p=0.067): 4.96
Worst Knee Pain Score, % reduction ([2]; total patients, 500 mg, wk 8): 37%
Worst Knee Pain Score ([2]; total patients, 500 mg, wk 8, baseline 6.87, p=0.21): 4.27
Worst Knee Pain Score, % reduction ([2]; total patients, 500 mg, wk 12): 41%
Worst Knee Pain Score ([2]; total patients, 500 mg, wk 12, n=75, baseline 6.87, p=0.249): 3.99
